Data taken from patent US20060069123A1, “Substituted dipiperidine CCR2 antagonists” (priority 2004, published 2006).
Read-outs that look alike come from different tables or passages of the source.

Columns and labels:
THP-1 cells = test: MCP-1 Induced Chemotaxis in THP-1 Cells; format: cell-based; conditions: Homo sapiens, THP-1, 3 h, THP-1 cells, MCP-1 0.01 μg/mL, 3 hours; read-out: Inhibition of MCP-1 Induced Chemotaxis IC50
Procedure: MCP-1 Induced Chemotaxis in THP-1 Cells
MCP-1 induced chemotaxis was run in a 24-well chemotaxis chamber. MCP-1 (0.01 μg/mL) was added to the lower chamber and 100 μL of THP-1 cells (1×10^7 cell/mL) was added to the top chamber. Varying concentrations of test compound were added to the top and bottom chambers. Cells were allowed to chemotax for 3 hours at 37° C. and 5% CO2. An aliquot of the cells that had migrated to the bottom chamber was taken and counted then compared to vehicle.

CCR2 = target: T1, CCR2 (Homo sapiens, UniProt P41597)
T1 sequence (P41597 1-360 isoform P41597-2): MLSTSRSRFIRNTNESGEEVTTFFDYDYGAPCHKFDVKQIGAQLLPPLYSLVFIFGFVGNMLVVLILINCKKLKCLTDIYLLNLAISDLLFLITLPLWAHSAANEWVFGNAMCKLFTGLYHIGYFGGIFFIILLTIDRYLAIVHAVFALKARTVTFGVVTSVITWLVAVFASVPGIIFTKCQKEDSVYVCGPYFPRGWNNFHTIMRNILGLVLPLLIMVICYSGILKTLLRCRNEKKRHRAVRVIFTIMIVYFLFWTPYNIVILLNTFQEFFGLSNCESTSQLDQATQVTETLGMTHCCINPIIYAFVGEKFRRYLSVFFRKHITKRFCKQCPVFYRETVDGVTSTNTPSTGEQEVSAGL

Row | SMILES | IC50 (CCR2) | further results
1 | CS(=O)(=O)Nc1ccc2c(C3CCN(C(C(=O)O)C4CCN(C(=O)/C=C/c5cc(F)c(F)c(F)c5)CC4)CC3)c[nH]c2c1 (stereo not shown) [Cpd 82] |  | IC50 (THP-1 cells): 0.21 µM
2 | N=C(NC(=O)c1ccc(Cl)c(Cl)c1)N1CCC(C(C(=O)O)N2CCC(c3c[nH]c4ccccc34)CC2)CC1 (stereo not shown) [Cpd 50, {1-[(3,4-dichloro-benzoylamino)-imino-methyl]-piperidin-4-yl}-[4-(1H-indol-3-yl)-piperidin-1-yl]-acetic acid] | 0.03 µM | 
3 | O=C(O)C(C1CCN(C(=O)NCc2ccc(Cl)c(Cl)c2)CC1)N1CCC(c2c[nH]c3ccccc23)CC1 (stereo not shown) [Cpd 84, [1-(3,4-dichloro-benzylcarbamoyl)-piperidin-4-yl]-[4-(1H-indol-3-yl)-piperidin-1-yl]-acetic acid] | 2.9 µM | 
4 | O=C(O)C(C1CCN(C(=O)/C=C/c2cc(F)c(F)c(F)c2)CC1)N1CCC(c2cc[nH]c2)CC1 (stereo not shown) [Cpd 150, [4-(1H-pyrrol-3-yl)-piperidin-1-yl]-{1-[(2E)-3-(3,4,5-trifluoro-phenyl)-acryloyl]-piperidin-4-yl}-acetic acid] | 1.6 µM | 
5 | COc1ccc(C2CCN(C(CO)C3CCN(C(=O)/C=C/c4cc(F)c(F)cc4F)CC3)CC2)cc1 (stereo not shown) [Cpd 140, (2E)-1-(4-{2-hydroxy-1-[4-(4-methoxy-phenyl)-piperidin-1-yl]-ethyl}-piperidin-1-yl)-3-(2,4,5-trifluoro-phenyl)-propenone] |  | IC50 (CCR2; read-out: Inhibition of MCP-1 Binding IC50, 125I labeled MCP-1 binding to CCR2, THP-1 cells): 1.6 µM
6 | N=C(NC(=O)c1cccc(C(F)(F)F)c1)N1CCC(C(C(=O)O)N2CCC(c3c[nH]c4ccccc34)CC2)CC1 (stereo not shown) [Cpd 73, {1-[imino-(3-trifluoromethyl-benzoylamino)-methyl]-piperidin-4-yl}-[4-(1H-indol-3-yl)-piperidin-1-yl]-acetic acid] | 0.15 µM | 
7 | O=C(O)C(C1CCN(C(=S)Nc2cccc(Br)c2)CC1)N1CCC(c2c[nH]c3ccccc23)CC1 (stereo not shown) [Cpd 56, [1-(3-bromo-phenylthiocarbamoyl)-piperidin-4-yl]-[4-(1H-indol-3-yl)-piperidin-1-yl]-acetic acid] | 0.06 µM | 
8 | O=C(O)C(C1CCN(C(=S)Nc2ccccc2)CC1)N1CCC(c2c[nH]c3ccccc23)CC1 (stereo not shown) [Cpd 43, [4-(1H-indol-3-yl)-piperidin-1-yl]-(1-phenylthiocarbamoyl-piperidin-4-yl)-acetic acid] | 1.1 µM | 
9 | O=C(/C=C/c1cc(F)c(F)c(F)c1)N1CCC(C(CO)N2CCC(c3nccs3)CC2)CC1 (stereo not shown) [Cpd 195] | 3.3 µM | 
10 | O=CNCC(C1CCN(C(=O)/C=C/c2cccc(C(F)(F)F)c2)CC1)N1CCC(c2c[nH]c3ccccc23)CC1 (stereo not shown) [Cpd 224] |  | inhibition at 25 µM (CCR2; read-out: Inhibition of MCP-1 Binding, percent inhibition): 54%
11 | Cc1ccc(NC(=S)N2CCC(C(C(=O)O)N3CCC(c4c[nH]c5ccccc45)CC3)CC2)cc1 (stereo not shown) [Cpd 78, [4-(1H-indol-3-yl)-piperidin-1-yl]-(1-p-tolylthiocarbamoyl-piperidin-4-yl)-acetic acid] | 0.14 µM | 
12 | O=C(O)C(C1CCN(C(=O)Nc2ccc(F)cc2)CC1)N1CCC(c2c[nH]c3ccccc23)CC1 (stereo not shown) [Cpd 90, [1-(4-fluoro-phenylcarbamoyl)-piperidin-4-yl]-[4-(1H-indol-3-yl)-piperidin-1-yl]-acetic acid] | 0.48 µM | 
13 | COC(=O)C(C1CCN(C(=O)/C=C/c2cc(F)c(F)c(F)c2)CC1)N1CCC(c2c[nH]c3c(OC)cccc23)CC1 (stereo not shown) [Cpd 118, [4-(7-methoxy-1H-indol-3-yl)-piperidin-1-yl]-{1-[(2E)-3-(3,4,5-trifluoro-phenyl)-acryloyl]-piperidin-4-yl}-acetic acid methyl ester] | 3.2 µM | 
14 | O=C(O)C(C1CCN(C(=O)/C=C/c2cc(F)c(F)c(F)c2)CC1)N1CCC(n2ccc3ccccc32)CC1 (stereo not shown) [Cpd 10, (4-indol-1-yl-piperidin-1-yl)-{1-[(2E)-3-(3,4,5-trifluoro-phenyl)-acryloyl]-piperidin-4-yl}-acetic acid] | 8.6 µM | 
15 | N=C(NC(=O)c1cc(F)c(F)c(F)c1)N1CCC(C(C(=O)O)N2CCC(c3c[nH]c4ccccc34)CC2)CC1 (stereo not shown) [Cpd 52, {1-[imino-(3,4,5-trifluoro-benzoylamino)-methyl]-piperidin-4-yl}-[4-(1H-indol-3-yl)-piperidin-1-yl]-acetic acid] | 0.03 µM | 
16 | COc1ccc(NC(=O)N2CCC(C(C(=O)O)N3CCC(c4c[nH]c5ccccc45)CC3)CC2)cc1 (stereo not shown) [Cpd 69, [4-(1H-indol-3-yl)-piperidin-1-yl]-[1-(4-methoxy-phenylcarbamoyl)-piperidin-4-yl]-acetic acid] | 14.2 µM | 
17 | CS(=O)(=O)Nc1ccc(C2CCN(C(C(=O)O)C3CCN(C(=O)/C=C/c4cc(F)c(F)c(F)c4)CC3)CC2)cc1 (stereo not shown) [Cpd 206, [4-(4-methanesulfonylamino-phenyl)-piperidin-1-yl]-{1-[(2E)-3-(3,4,5-trifluoro-phenyl)-acryloyl]-piperidin-4-yl}-acetic acid] | 2 µM | 
18 | N=C(NC(=O)c1cccc(F)c1)N1CCC(C(C(=O)O)N2CCC(c3c[nH]c4ccccc34)CC2)CC1 (stereo not shown) [Cpd 54, {1-[(3-fluoro-benzoylamino)-imino-methyl]-piperidin-4-yl}-[4-(1H-indol-3-yl)-piperidin-1-yl]-acetic acid] | 1.4 µM | 
19 | O=C(O)C(C1CCN(C(=O)Nc2ccc(Cl)cc2Cl)CC1)N1CCC(c2c[nH]c3ccccc23)CC1 (stereo not shown) [Cpd 111, [1-(2,4-dichloro-phenylcarbamoyl)-piperidin-4-yl]-[4-(1H-indol-3-yl)-piperidin-1-yl]-acetic acid] | 11.2 µM | 
20 | O=C(O)C(C1CCN(C(=O)Nc2ccc(F)c(F)c2F)CC1)N1CCC(c2c[nH]c3ccccc23)CC1 (stereo not shown) [Cpd 125, [4-(1H-indol-3-yl)-piperidin-1-yl]-[1-(2,3,4-trifluoro-phenylcarbamoyl)-piperidin-4-yl]-acetic acid] | 1.7 µM | 
21 | COc1ccc(NC(=O)N2CCC(C(C(=O)O)N3CCC(c4c[nH]c5ccccc45)CC3)CC2)cc1OC (stereo not shown) [Cpd 66, [1-(3,4-dimethoxy-phenylcarbamoyl)-piperidin-4-yl]-[4-(1H-indol-3-yl)-piperidin-1-yl]-acetic acid] | 17.7 µM | 

Second part, led by results:

Row | IC50 (CCR2) | SMILES | further results
22 | 2.4 µM | CCNC(=O)NCC(C1CCN(C(=O)/C=C/c2cc(F)c(F)c(F)c2)CC1)N1CCC(c2c[nH]c3ccccc23)CC1 (stereo not shown) [Cpd 228] | 
23 | 2.1 µM | CCNC(=O)NCC(C1CCN(C(=O)/C=C/c2ccc(Cl)c(Cl)c2)CC1)N1CCC(c2c[nH]c3ccccc23)CC1 (stereo not shown) [Cpd 230] | 
24 | 2.17 µM | O=C(O)C(C1CCN(C(=O)/C=C/c2cc(F)cc(F)c2)CC1)N1CCC(Cc2c[nH]c3ccccc23)CC1 (stereo not shown) [Cpd 11, {1-[(2E)-3-(3,5-difluoro-phenyl)-acryloyl]-piperidin-4-yl}-[4-(1H-indol-3-ylmethyl)-piperidin-1-yl]-acetic acid] | 
25 | 1.3 µM | O=CNCC(C1CCN(C(=O)/C=C/c2ccsc2)CC1)N1CCC(c2c[nH]c3ccccc23)CC1 (stereo not shown) [Cpd 225] | 
26 | 8.55 µM | CN(C)CC(C1CCN(C(=O)/C=C/c2cc(F)cc(F)c2)CC1)N1CCC(c2c[nH]c3ccccc23)CC1 (stereo not shown) [Cpd 130, (2E)-3-(3,5-difluoro-phenyl)-1-(4-{2-dimethylamino-1-[4-(1H-indol-3-yl)-piperidin-1-yl]-ethyl}-piperidin-1-yl)-propenone] | 
27 | 2.4 µM | COC(=O)NCC(C1CCN(C(=O)/C=C/c2cc(F)c(F)c(F)c2)CC1)N1CCC(c2c[nH]c3ccccc23)CC1 (stereo not shown) [Cpd 238, (2-[4-(1H-indol-3-yl)-piperidin-1-yl]-2-{1-[(2E)-3-(3,4,5-trifluoro-phenyl)-acryloyl]-piperidin-4-yl}-ethyl)-carbamic acid methyl ester] | 
28 | 0.3 µM | N=C(NC(=O)c1cc(F)cc(F)c1)N1CCC(C(C(=O)O)N2CCC(c3c[nH]c4ccccc34)CC2)CC1 (stereo not shown) [Cpd 51, {1-[(3,5-difluoro-benzoylamino)-imino-methyl]-piperidin-4-yl}-[4-(1H-indol-3-yl)-piperidin-1-yl]-acetic acid] | 
29 | 3 µM | COC(=O)NCC(C1CCN(C(=O)/C=C/c2cc(F)cc(F)c2)CC1)N1CCC(c2c[nH]c3ccccc23)CC1 (stereo not shown) [Cpd 239] | 
30 | 1.2 µM | COc1cccc(C2CCN(C(CO)C3CCN(C(=O)/C=C/c4cc(F)cc(F)c4)CC3)CC2)c1 (stereo not shown) [Cpd 197] | 
31 | 3 µM | O=C(O)C(C1CCN(C(=O)/C=C/c2cc(F)cc(F)c2)CC1)N1CCC(c2n[nH]c3ccccc23)CC1 (stereo not shown) [Cpd 177, {1-[(2E)-3-(3,5-difluoro-phenyl)-acryloyl]-piperidin-4-yl}-[4-(1H-indazol-3-yl)-piperidin-1-yl]-acetic acid] | 
32 | 0.41 µM | O=CNCC(C1CCN(C(=O)/C=C/c2cc(F)cc(F)c2)CC1)N1CCC(c2c[nH]c3ccccc23)CC1 (stereo not shown) [Cpd 221] | 
33 | 0.02 µM | O=C(/C=C/c1cc(F)cc(F)c1)N1CCC(C(CO)N2CCC(c3ccc(Cl)cc3)CC2)CC1 (stereo not shown) [Cpd 249, (2E)-1-(4-{1-[4-(4-chloro-phenyl)-piperidin-1-yl]-2-hydroxy-ethyl}-piperidin-1-yl)-3-(3,5-difluoro-phenyl)-propenone] | 
34 | 2.7 µM | O=C(O)C(C1CCN(C(=S)Nc2ccc(F)cc2F)CC1)N1CCC(c2c[nH]c3ccccc23)CC1 (stereo not shown) [Cpd 44, [1-(2,4-difluoro-phenylthiocarbamoyl)-piperidin-4-yl]-[4-(1H-indol-3-yl)-piperidin-1-yl]-acetic acid] | 
